Results as given in patent US12643913B2, “Mcl-1 inhibitor formulations” (AMGEN INC., priority 2020, dated 2026).
Entries after “also recorded” stand apart in the source; their conditions may differ.

What was measured:
[1] = Moisture sorption profile (DVS); assay type: physicochemical; details: by 95% RH; listed as amorphous AMG 397
Procedure: Moisture Sorption: Moisture sorption data was collected using a Surface Measurement Systems DVSAdvantage instrument. Equilibrium criteria were set at ±0.001% weight change in 10 minutes with a maximum equilibrium time of 380 minutes.
Moisture Sorption: Moisture sorption data was collected using a Surface Measurement Systems DVSAdvantage instrument. Equilibrium criteria were set at ±0.001% weight change in 10 minutes with a maximum equilibrium time of 360 minutes.

[2] = Clinical observations in the beagle dog PK study; assay type: in vivo, male beagle dogs; details: 3 mg/kg PO, individual dogs
Procedure: Briefly, during each phase five male beagle dogs were assigned to each group of the study. All animals were fasted for at least eight hours prior to dosing and through the first four hours of blood sample collection for each phase. Food was returned within 30 minutes following collection of the last blood sample at the four-hour collection interval. Each animal in Phase 1, received a single oral (PO) gavage dose of the appropriate test article formulation as outlined in the study design Table 6. Oral gavage dosing formulations were continuously stirred throughout dosing. The gavage tube was rinsed with approximately 10 mL of tap water following dosing (prior to removal of the gavage tube). Following each study phase a 7-day washout period was allowed prior to the dosing of the next phase. The same five dogs were assigned to either group 1 or group 2 formulations for the duration of the study.
Test Article Administration: A total of 10 male beagle dogs were initially assigned to study. All animals were fasted for at least eight hours prior to dosing and through the first four hours of blood sample collection for each phase, where applicable (food will be returned within 30 minutes following collection of the last blood sample at the four hour collection interval, where applicable). Total fasting time […] 24 hours.
Different pre-treatments were assigned for each phase of the study to mimic several scenarios: • 1. No pre-treatment was administered for Phase 1 as it served as a control. • 2. During Phase 2, at 1 hour 54 minutes to 1 hour 58 minutes prior to dose administration, all animals were pretreated with two 20 mg (40 mg total) oral tablets of famotidine followed by a 10 mL dose of deionized water. […] This was used to determine the role of stomach pH on exposure. • 3. During Phases 3 and 4, at 30 to 38 minutes prior to dose administration, all animals were pretreated with a single intramuscular dose of pentagastrin in phosphate buffered saline, pH 7.4, at a dose level of 0.006 mg/kg and a dose volume of 0.05 mL/kg. The pentagastrin dose was used to ensure that the dogs stomach pH was normalized to pH ˜2.0 as it is known that the dogs stomach pH is often higher than that of humans under resting conditions. • 4. In addition, […], at 1 hour 3 minutes to 1 hour 6 minutes prior to dose administration and 4 hours 10 minutes to 4 hours 11 minutes following dose by oral gavage at a dose level of 3 mg/kg and a dose volume of 4 mL/kg. This final phase was used to study if P-gp played a role in absorption.

[3] = Chemical stability of amorphous solid dispersions (HPLC: LCAP, total impurities) through processing and on storage; assay type: physicochemical; details: all storage conditions
Procedure: The chemical and physical stability of AMG 397 50% drug load ASDs generated by spray drying from THF was monitored over 4 weeks under accelerated conditions. Chemical stability was measured by HPLC and physical stability by XRPD, DSC and TGA. Samples were stored at 40° C./75% RH open, 40° C./75% RH closed, 25° C./60% RH closed, and 5° C. closed. All samples were tested after storage for 4 weeks except for the 40° C./75% RH open condition that was also tested at weeks 1 and 2. The THF ASD samples had significant degradation at TO due to the use of THF as the spray solvent. […] Unlike the amorphous DS, the ASD samples were stable when stored at 5° C. for 4-weeks.
Two further amorphous solid dispersions (ASD) were therefore prepared by spray-drying using DCM as the solvent in place of THF. Soluplus was used to prepare both these dispersions due to its improved stability over HPMC-AS ASDs generated from THF. Two drug loads were investigated, 25% and 50%.
The chemical stability of AMG 397 Soluplus ASDs generated by spray drying using DCM was monitored during each processing step to ensure that no degradation occurred during spray-drying or secondary drying. Samples were also stored for 4 weeks under the following conditions: 5° C. closed, 25° C. closed, 25°,C/60% RH closed, 25° C./60% RH open, 40° C./75% RH open and 40° C./75% RH closed. […]

CO[C@]1(CN2CCN3CCCC[C@@H]3C2)/C=C/C[C@H](C)[C@@H](C)S(=O)(=O)NC(=O)c2ccc3c(c2)N(C[C@@H]2CC[C@H]21)C[C@@]1(CCCc2cc(Cl)ccc21)CO3 [AMG 397 Amorphous]
Moisture sorption weight gain [1]: ~6.4% | Positive clinical findings (observation) ([2]; Phase 1 (Days 1 to 7), no pre-treatment): Yellow, frothy vomitus | Positive clinical findings (observation) ([2]; Phase 2 (Days 8 to 14), famotidine pre-treatment): White, frothy vomitus; also recorded: Soft feces; also recorded: Yellow, frothy vomitus | Positive clinical findings (observation) ([2]; Phase 3 (Days 15 to 21), pentagastrin pre-treatment): Salivation; also recorded: White, frothy vomitus; also recorded: Yellow, frothy vomitus | Positive clinical findings (observation) ([2]; Phase 4 (Days 22 to 24), pentagastrin pre-treatment and inhibitor GF120918 pre- and post-treatment): Small amount of white, | Positive clinical findings (observation) ([2]; Phase 5 (Days 71 to 73), inhibitor GF120918 pre- and post-treatment, 3 mg/kg): Salivation; also recorded: Watery feces; also recorded: Yellow, frothy vomitus; also recorded: Yellow, discolored feces; also recorded: Mucoid feces; also recorded: Tan, frothy vomitus | Change of total impurities at 4-weeks [3]: Increases in total impurities
